# Measurements reported in ChEMBL document CHEMBL4706559, “New indolylarylsulfone non-nucleoside reverse transcriptase inhibitors show low nanomolar inhibition of single and double HIV-1 mutant strains” (Eur J Med Chem, 2020).
# pEC50, pIC50, pKi: −log10 of the molar value.
# How the values were obtained:
# [1] = molecular target: T1, Human immunodeficiency virus type 1 reverse transcriptase (Human immunodeficiency virus 1, UniProt Q72547); experiment: Binding affinity to wild type HIV-1 p66/p51 reverse transcriptase/nucleic acid/dTTP ternary complex using poly(rA)/oligo(dT) as templates in presence of [3H]dTTP
# [2] = tested on: Human immunodeficiency virus 1; experiment: Inhibition of HIV1 p66/p51 reverse transcriptase K103N/Y181C double mutant assessed as apparent Vmax at 75 nM using fixed concentration of poly(rA)/oligo(dT) as templates in presence of 2 to 100 uM of [3H]dTTP by Michaelis-Menten analysis (reference value: 9.6 +/- 0.4%)
# [3] = molecular target: Human immunodeficiency virus type 1 reverse transcriptase (Human immunodeficiency virus 1) (UniProt Q72547); experiment: Inhibition of wild type HIV1 p66/p51 reverse transcriptase assessed as apparent Vmax at 225 nM using fixed concentration of poly(rA)/oligo(dT) as templates in presence of 2 to 100 uM of [3H]dTTP by Michaelis-Menten analysis (reference value: 9.7 +/- 12%)
# [4] = Binding affinity to HIV-1 p66/p51 reverse transcriptase K103N/Y181C double mutant/nucleic acid binary complex using poly(rA)/oligo(dT) as templates in presence of [3H]dTTP; design: species or system Human immunodeficiency virus 1
# [5] = tested on: Human immunodeficiency virus 1; experiment: Antiviral activity against HIV1 harboring RT Y188L mutant infected in human MT4 cells assessed as protection against virus-induced cytopathic effect by MTT assay; type: functional, organism-based; settings: Human immunodeficiency virus 1, MT4
# [6] = tested on: Human immunodeficiency virus 1; experiment: Antiviral activity against HIV1 harboring RT K103N/Y181C double mutant infected in human MT4 cells assessed as protection against virus-induced cytopathic effect by MTT assay; type: functional, organism-based; settings: Human immunodeficiency virus 1, MT4
# [7] = tested on: Human immunodeficiency virus 1; experiment: Antiviral activity against HIV1 harboring RT K103N mutant infected in human MT4 cells assessed as protection against virus-induced cytopathic effect by MTT assay; type: functional, organism-based; settings: Human immunodeficiency virus 1, MT4
# [8] = tested on: Human immunodeficiency virus 1; experiment: Resistance index, ratio of EC50 for antiviral activity against HIV1 harboring RT K103N/Y181C double mutant infected in human MT4 cells to EC50 for antiviral activity against HIV1 NL4-3 infected in human MT4 cells; type: functional
# [9] = tested on: Human immunodeficiency virus 1; experiment: Binding affinity to free form of HIV-1 p66/p51 reverse transcriptase K103N/Y181C double mutant assessed as association constant using poly(rA)/oligo(dT) as templates in presence of [3H]dTTP
# [10] = tested on: Human immunodeficiency virus 1; experiment: Binding affinity to HIV-1 p66/p51 reverse transcriptase K103N/Y181C double mutant/nucleic acid/dTTP ternary complex assessed as dissociation constant using poly(rA)/oligo(dT) as templates in presence of [3H]dTTP
# [11] = tested on: Human immunodeficiency virus 1; experiment: Inhibition of HIV1 p66/p51 reverse transcriptase K103N/Y181C double mutant assessed as apparent Km of substrate at 300 nM using […] as templates in presence of fixed concentration of [3H]dTTP by Michaelis-Menten analysis (reference value: 106+/- 16 nM)
# [12] = tested on: Human immunodeficiency virus 1; experiment: Synergistic inhibition of wild type HIV-1 p66/p51 reverse transcriptase assessed as combination index using poly(rA)/oligo(dT) as templates in presence of [3H]dTTP preincubated enzyme with nucleic acid followed by addition of AZTTP and subsequent incubation with compound and dTTP
# [13] = molecular target: Human immunodeficiency virus type 1 reverse transcriptase (Human immunodeficiency virus 1) (UniProt Q72547); experiment: Binding affinity to free form of wild type HIV-1 p66/p51 reverse transcriptase assessed as association constant using poly(rA)/oligo(dT) as templates in presence of [3H]dTTP
# [14] = Selectivity ratio of CC50 for human MT4 cells to EC50 for antiviral activity against HIV-1 NL4-3 infected in human MT4 cells; type: toxicity, cell-based; settings: read-out: Ratio CC50/EC50
# [15] = tested on: Human immunodeficiency virus 1; experiment: Antiviral activity against HIV-1 NL4-3 infected in human MT-4 cells assessed as virus induced cytopathic effect by MTT assay; type: functional, organism-based; settings: Human immunodeficiency virus 1, NL4-3, MT4
# [16] = molecular target: T1, Human immunodeficiency virus type 1 reverse transcriptase; experiment: Binding affinity to wild type HIV-1 p66/p51 reverse transcriptase/nucleic acid binary complex using poly(rA)/oligo(dT) as templates in presence of [3H]dTTP
# [17] = molecular target: Human immunodeficiency virus type 1 reverse transcriptase (Human immunodeficiency virus 1) (UniProt Q72547); experiment: Inhibition of wild type HIV1 p66/p51 reverse transcriptase assessed as apparent Vmax at 30 nM using fixed concentration of poly(rA)/oligo(dT) as templates in presence of 2 to 100 uM of [3H]dTTP by Michaelis-Menten analysis (reference value: 9.7 +/- 12%)
# [18] = molecular target: T1, Human immunodeficiency virus type 1 reverse transcriptase; experiment: Inhibition of RNA-dependent DNA polymerase activity of wild type recombinant HIV-1 His-tagged p66/p51 reverse transcriptase assessed as inhibition of [3H]dTTP incorporation using poly(rA)/oligo(dT) as templates incubated for 15 mins by MicroBeta scintillation counting method
# [19] = tested on: Human immunodeficiency virus 1; experiment: Resistance index, ratio of EC50 for antiviral activity against HIV1 harboring RT Y188L mutant infected in human MT4 cells to EC50 for antiviral activity against HIV1 NL4-3 infected in human MT4 cells; type: functional
# [20] = tested on: Human immunodeficiency virus 1; experiment: Ratio of Kon of HIV-1 p66/p51 reverse transcriptase K103N/Y181C double mutant/nucleic acid/dTTP ternary complex to Kon of HIV-1 p66/p51 reverse transcriptase/nucleic acid binary complex using poly(rA)/oligo(dT) as templates in presence of [3H]dTTP
# [21] = tested on: Human immunodeficiency virus 1; experiment: Binding affinity to HIV-1 p66/p51 reverse transcriptase K103N/Y181C double mutant/nucleic acid binary complex assessed as dissociation constant using poly(rA)/oligo(dT) as templates in presence of [3H]dTTP
# [22] = tested on: Human immunodeficiency virus 1; experiment: Inhibition of HIV1 p66/p51 reverse transcriptase K103N/Y181C double mutant assessed as apparent Km of substrate at 75 nM using fixed concentration of poly(rA)/oligo(dT) as templates in presence of 2 to 100 uM of [3H]dTTP by Michaelis-Menten analysis (reference value: 9.2 +/- 1.4 uM)
# [23] = molecular target: Human immunodeficiency virus type 1 reverse transcriptase (Human immunodeficiency virus 1) (UniProt Q72547); experiment: Ratio of Kon of wild type HIV-1 p66/p51 reverse transcriptase/nucleic acid binary complex to Kon of wild type HIV-1 p66/p51 reverse transcriptase/nucleic acid/dTTP ternary complex using poly(rA)/oligo(dT) as templates in presence of [3H]dTTP
# [24] = molecular target: Human immunodeficiency virus type 1 reverse transcriptase (Human immunodeficiency virus 1) (UniProt Q72547); experiment: Binding affinity to free form of wild type HIV-1 p66/p51 reverse transcriptase assessed as dissociation constant using poly(rA)/oligo(dT) as templates in presence of [3H]dTTP
# [25] = molecular target: Human immunodeficiency virus type 1 reverse transcriptase (Human immunodeficiency virus 1) (UniProt Q72547); experiment: Binding affinity to wild type HIV-1 p66/p51 reverse transcriptase/nucleic acid/dTTP ternary complex assessed as association constant using poly(rA)/oligo(dT) as templates in presence of [3H]dTTP
# [26] = molecular target: Human immunodeficiency virus type 1 reverse transcriptase (Human immunodeficiency virus 1) (UniProt Q72547); experiment: Inhibition of wild type HIV1 p66/p51 reverse transcriptase assessed as apparent Vmax at 37.5 nM using 10 to 500 uM poly(rA)/oligo(dT) as templates in presence of fixed concentration of [3H]dTTP by Michaelis-Menten analysis (reference value: 10 +/- 0.5%)
# [27] = molecular target: T1, Human immunodeficiency virus type 1 reverse transcriptase; experiment: Binding affinity to free form of wild type HIV-1 p66/p51 reverse transcriptase using poly(rA)/oligo(dT) as templates in presence of [3H]dTTP
compound,measurement,setting,value
Cc1cc(C)cc(S(=O)(=O)c2c(C(=O)NCc3ccccc3O)[nH]c3ccc(Cl)cc23)c1,pKi,[1],7.55
same,Vmax(app),[2],6.2%
same,Vmax(app),[3],0.9%
same,pKi,[4],7.07
same,pEC50,[5],7.67
same,pEC50,[6],8.21
same,pEC50,[7],> 9.15
same,Ratio EC50,[8],>8.8
same,K,[9],10 10^-5/nM/s
same,K,[10],33 10^-3/s
same,Km,[11],0.104 µM
same,CI,[12],0.75
same,K,[13],13 10^-5/nM/s
same,selectivity ratio,[14],> 39700
same,pEC50,[15],> 9.15
same,pKi,[16],7.44
same,Vmax(app),[17],5.6%
same,pIC50,[18],7.08
same,Ratio EC50,[19],>30
same,Ratio,[20],4
same,K,[21],8 10^-3/s
same,Km,[22],5.8 µM
same,Ratio,[23],7
same,K,[24],4 10^-3/s
same,K,[25],15 10^-5/nM/s
same,Vmax(app),[26],4.9%
same,pKi,[27],7.51
